The source of these data is PMC7026498, “GABAA Receptor β2E155 Residue Located at the Agonist-Binding Site Is Involved in the Receptor Gating” (Frontiers in Cellular Neuroscience, 2020).

Each structure is given as a SMILES string.

Assay [1] deals with T1, GABAA receptor α1β2γ2L (β2 subunit) (Rattus norvegicus, UniProt P62813+P63138).
T1 construct: gene Gabrb2; recombinant α1β2γ2L receptor in HEK293 cells; with GABAA receptor α1 and γ2L subunits
The experiment in a line: whole-cell patch-clamp dose-response. The format is cell-based. On the technique in general: In patch-clamp work, channel activity is measured electrically.

Assay [2] deals with T2, GABAA receptor α1β2E155Cγ2L (β2 subunit) (Rattus norvegicus, UniProt P62813+P63138, P63138:E179C).
T2 construct: gene Gabrb2; recombinant α1β2E155Cγ2L receptor in HEK293 cells; with GABAA receptor α1 and γ2L subunits
Description: whole-cell patch-clamp dose-response (extrapolated Hill fit) and single-channel recording. The class given is cell-based.

T2 sequence (P63138 26-474 E179C): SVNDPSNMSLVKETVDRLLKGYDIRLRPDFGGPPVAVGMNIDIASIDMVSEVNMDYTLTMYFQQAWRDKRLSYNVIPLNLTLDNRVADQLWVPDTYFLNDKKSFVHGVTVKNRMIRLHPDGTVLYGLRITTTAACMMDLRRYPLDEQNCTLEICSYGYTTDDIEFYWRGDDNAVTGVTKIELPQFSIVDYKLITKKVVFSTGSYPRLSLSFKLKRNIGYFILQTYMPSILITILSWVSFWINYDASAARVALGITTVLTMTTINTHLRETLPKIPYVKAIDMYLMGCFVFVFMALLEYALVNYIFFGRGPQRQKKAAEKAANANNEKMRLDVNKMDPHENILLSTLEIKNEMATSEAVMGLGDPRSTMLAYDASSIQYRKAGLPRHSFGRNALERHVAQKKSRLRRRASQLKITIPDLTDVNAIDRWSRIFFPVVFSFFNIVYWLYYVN
T2 sequence (P62813 28-455): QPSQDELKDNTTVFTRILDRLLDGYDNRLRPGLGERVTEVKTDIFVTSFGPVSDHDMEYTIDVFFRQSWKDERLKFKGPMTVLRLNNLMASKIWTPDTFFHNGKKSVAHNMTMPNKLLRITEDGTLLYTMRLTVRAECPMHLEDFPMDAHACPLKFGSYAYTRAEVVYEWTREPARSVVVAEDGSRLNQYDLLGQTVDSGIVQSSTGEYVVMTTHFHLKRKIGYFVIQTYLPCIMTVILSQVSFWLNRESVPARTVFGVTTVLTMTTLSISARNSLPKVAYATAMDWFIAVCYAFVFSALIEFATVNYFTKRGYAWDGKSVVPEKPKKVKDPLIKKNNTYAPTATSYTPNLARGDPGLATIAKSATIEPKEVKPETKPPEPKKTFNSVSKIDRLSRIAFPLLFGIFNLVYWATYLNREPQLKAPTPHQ
T2 sequence (P18508 39-466 partner): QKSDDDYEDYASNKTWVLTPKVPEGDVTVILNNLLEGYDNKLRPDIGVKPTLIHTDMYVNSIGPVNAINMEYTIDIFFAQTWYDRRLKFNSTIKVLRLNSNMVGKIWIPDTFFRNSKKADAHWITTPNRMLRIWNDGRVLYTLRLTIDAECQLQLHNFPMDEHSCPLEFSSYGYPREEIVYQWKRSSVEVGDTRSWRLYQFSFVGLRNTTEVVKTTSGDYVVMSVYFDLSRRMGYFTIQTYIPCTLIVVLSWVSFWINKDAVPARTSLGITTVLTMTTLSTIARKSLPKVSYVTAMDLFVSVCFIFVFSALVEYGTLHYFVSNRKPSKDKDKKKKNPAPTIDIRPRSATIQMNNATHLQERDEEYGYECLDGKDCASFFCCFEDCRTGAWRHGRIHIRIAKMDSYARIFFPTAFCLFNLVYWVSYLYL
T1 sequence (P63138 26-474): as the sequence (P63138 26-474 E179C) above, with C154E counted along it
T1 sequence (P62813 28-455): as the sequence (P62813 28-455) above
T1 sequence (P18508 39-466 partner): as the sequence (P18508 39-466 partner) above

As for `NCc1cc(=O)[nH]o1` [MSC, muscimol], the EC50 (in general, the concentration at which the effect is half-maximal) is 0.009 mM in assay [1] and 12.5 mM in assay [2].
